Entries after “also recorded” stand apart in the source; their conditions may differ. A value given as a limit tells only on which side of the number the result lay.

The values that follow come from publication PMC7268320, “Cerebrospinal fluid penetration of targeted therapeutics in pediatric brain tumor patients” (Acta Neuropathologica Communications, 2020).

The nature of data set [1]: CSF drug concentration in pediatric brain tumor patients, Ommaya reservoir samples, HPLC-QqQ MS. The data set is classed as in vivo, human. As to conditions: for CSF penetrance class: CSF concentration class; for CSF concentration, mean: total drug, steady state; for CSF concentration, mean / detection in CSF samples: oral dosing, pediatric brain tumor patients. How it is done: Samples were obtained from patients treated at the Department of Pediatrics and Adolescent Medicine at the General Hospital of Vienna and the study was approved by the ethics committee of the Medical University of Vienna. Patient characteristics (age, weight, sex) and clinical data (tumor type, medication, radiotherapy, localization, leptomeningeal disease, serum protein levels, and CSF protein levels) were retrieved from patient charts. Clinical and serum parameters were measured within the same treatment cycle, CSF protein levels at the same date and sample collection time point. Samples were collected and snap frozen within routine clinical sampling during intraventricular chemotherapy administration.
We included samples of patients who received oral small molecule inhibitors and concomitant intraventricular therapy. […] As backbone therapy the majority of patients were treated according to the MEMMAT protocol (NCT01356290) with slight modifications in some cases as indicated in Additional file 1: Table S1. Dosing for pediatric patients was adjusted according to the treatment protocols or previous reports as outlined in Table 1. […] In two cases, samples of patients being sequentially treated with different drugs were collected as indicated in Additional file 1: Table S2. […] CSF samples (< 0.5 mL) of pediatric patients were collected using an Ommaya reservoir, immediately snap frozen and afterwards stored at − 80 °C prior to HPLC-MS analysis. Figure 1 gives general information on the workflow of CSF sample collection, sample preparation and HPLC-MS analysis. Detailed information on the analysis method and the working parameters of the HPLC-MS system(s) can be found in the supplementary material available online (Additional file 1: Figures S1 and S2 and Tables S3–4).
In a first step, we determined whether CSF samples from Ommaya reservoirs analyzed with HPLC-QqQ MS or HPLC-IMS-Q-TOF MS allow reliable detection of orally administered drugs and the respective metabolites. For that purpose, special focus was on the improvement of an HPLC-QqQ MS multi-method to quantitate the respective substances in CSF samples. The applied chromatographic gradient as well as the sensitivity of the MS detection were optimized to allow a quantitation of all mentioned analytes within one run and over a broad range of analyte concentration levels (800 ng L^− 1 to 250 μg L^− 1).
Table S2 Sequential therapies of the investigated drugs in the study cohort. The period to the prior drug is indicated in brackets.
Selleckchem (Houston, TX, USA). Standards were originally prepared as a 10 mM DMSO solution, but were further diluted with methanol to obtain stock solutions containing analyte concentrations of 10 mg L-1 and were stored at 4 °C. The internal standard (ISTD) carbamazepine (> 98 %) was obtained from Sigma-Aldrich Handels GmbH (Vienna, Austria) and used as a methanolic stock solution with a concentration of 2 g L-1, which was diluted as needed.
Succinanilic acid (p.a.) was purchased from Sigma-Aldrich Handels GmbH (Vienna, Austria) diluted to a 400 mg L-1 methanolic stock solution and stored at 4 °C.
All used solvents were HPLC grade and were purchased from VWR International GmbH (Darmstadt, […]
Formic acid (≥ 96 %) was purchased from Sigma-Aldrich Handels GmbH (Vienna, Austria).
Water was used in Millipore quality obtained from a Millipore purification system (Molsheim, France).
CSF samples (< 0.5 mL) of pediatric patients receiving cancer therapy drugs were collected using an Ommaya reservoir, and were stored at -80 °C prior to further analysis.

Data set [2] can be described thus: Calculated free (protein-unbound) drug levels in CSF, law of mass action. The data set is classed as in vivo, human. To be noted: law of mass action approach; for fraction unbound: human, CSF, oral, read-out: unbound fraction of the total drug amount measured in CSF. An excerpt: Directly measuring free drug levels in CSF may be impossible due to low drug concentrations. Besides the experimental quantitation, if feasible, also the law of mass action can be used to predict protein-unbound drug levels. Accordingly, CSF proteins and associated drugs may be considered as center and ligand, forming a complex. Consequently, we applied the corresponding mathematical model to estimate free drug concentration. The derivation is given in further detail in the supplementary material.

Another data set concerns ABCB1. Kind of data set: Intracellular drug accumulation in ABCB1-overexpressing KB-C1 cells with or without elacridar (ABCB1 substrate testing), HPLC-QqQ MS. The data set is classed as cell-based. To be noted: fold-change of drug accumulation upon ABCB1-inhibition with elacridar, Fig. 4 coding: > 2 fold-control unfavorable, 1–2 intermediate, < 1 favorable. The protocol: We first compared interaction of the investigated drugs with ABCB1 by measuring fluorescent substrate drug accumulation in the parental KB-3-1 (a HeLa cell derivative) cell model and its isogenic ABCB1-overexpressing KB-C1 cell model, as previously published. As a known fluorescent ABCB1 substrate calcein (derived from non-fluorescent calcein AM) was used in the presence of investigated drugs (1 μM and 10 μM) using fluorescence-activated cell sorting (FACS). The ABCB1 inhibitor elacridar was used as positive control. As this approach cannot distinguish competitive (by a substrate) and non-competitive (by a pure inhibitor) ABCB1 inhibition, KB-C1 cells were additionally exposed to the examined drugs with or without elacridar to test the actual impact of ABCB1 activity on the concentration of drug within the cells. In detail, cultivated cells were grown, washed, lysed using 100 μL methanol, centrifuged and stored at − 80 C prior to analysis. […] Finally, 100 μL supernatant were collected and analyzed using the developed HPLC-QqQ MS method (see Supplementary Material).
6. Experiments with ABCB1-overexpressing KBC1 cells
Experiments were conducted to test for a possible inhibition or substrate character of the investigatzed […]
Figure S8 ABCB1 testing. (A) Calcein accumulation assay in KB-3-1 (control) and ABCB1-overexpressing KBC1 cells. Bars depict calcein fluorescence intensity measured by fluorescence activated cell sorting (FACS). Higher bars as compared to calcein in ABCB1-overexpressing cells indicate ABCB1-inhibition. Elacridar served as positive control. (B) Accumulation of drugs upon ABCB1-inhibition with elacridar measured by HPLC-QqQ MS.
(without elacridar inhibition).
(1 picture or pasted object on this page, not shown here)

Data set [3] can be described thus: Collision cross section by HPLC-IMS-Q-TOF MS. The data set is classed as physicochemical. The text has this: Data processing was achieved using MassHunter Workstation Software B.05.02 from Agilent […]
for quantitation, including all transitions and corresponding collision energies as well as fragmentor voltages and retention times.
Table S3 Overview of the used QqQ transitions for quantitative and qualitative characterization in Dynamic MRM Mode using 7 V of cell acceleration voltage, 500 ms cycle time and positive polarization within an Agilent 6420 QqQ.
Compound Precursor Ion Product Ion / r.t. / min Fragmentor / Collision […]
(§1) Metabolite detection and determination of collision cross sections was performed using an IMS-Q-TOF MS within a mass range of 100 – 1700 m/z in QTOF-only and IMS mode respectively. Ionization was again obtained by the means of positive electrospray ionization using 5 L min-1 of nitrogen stream with 300 °C for drying, a capillary voltage of 3.5 kV and a nebulizer pressure of 35 psig. Further parameters included a sheath gas flow of 11 L min-1 at 350 °C and a nozzle voltage of 1 kV. The fragmentor voltage was set to 400 V. Ion mobility experiments were performed with a maximal drift time of 60 ms at a frame rate of 0.9 frames per second resulting in a total of 600 TOF-transients within one frame. Data processing was achieved using IM-MS Browser B.08.00 from Agilent Technologies on the basis of ion

The conditions of data set [4]: cited from earlier work.
Data set [5] in a line: Detection of drug metabolites in patient CSF, HPLC-IMS-Q-TOF MS with in silico metabolite prediction. The data set is classed as in vivo, human.
Description: In a next step, theoretical molecular formulas and related ion masses of the predicted metabolites were transferred into a database and compared to measured high-resolution Q-TOF mass spectra of biological samples. For that purpose, MassHunter Qualitative Workflows B.08.00 software (Agilent Technologies, Santa Clara, California) was used, as it enables (semi)-automated data processing. Within this procedure, theoretical and measured exact ion masses and abundances of isotopologues and molecule-cation adducts were compared. The results of this comparison were then used to evaluate the validity of the identification, which is expressed as a score. This quality measure is important as it reduces the risk of false positives that are likely in complex biological samples, especially when only the accurate mass of a molecule is used. […]
as §1

The conditions of data set [6]: metabolites detected in CSF; cited from earlier work.
Data set [7] in a line: Matched serum sample to prove oral uptake of nintedanib, HPLC-MS. The data set is classed as in vivo, human. To be noted: one time point, patient #4.

For orientation: fraction unbound means the share of the substance not bound to proteins or other matrix. Regarding `CNC(=O)c1cc(Oc2ccc(NC(=O)Nc3ccc(Cl)c(C(F)(F)F)c3)c(F)c2)ccn1` [regorafenib], in data set [1], the CSF penetrance class entry is “moderate (moderate (1–10 nM))” and the “CSF concentration, mean” value is 6.7 nM. Besides, in data set [2], the fraction unbound was < 0.6 and the “calculated free, unbound CSF concentration, mean” value is given as 3.9 nM. For the same compound, the ABCB1 substrate evaluation result with ABCB1 is given as “most favorable”. Also, in data set [3], the “CCS value relative to that expected from the MW” value is given as “significantly lower”. The “protein binding in serum” value in data set [4] (serum) was 99.5%.

On to `Cc1ccc(NC(=O)c2ccc(CN3CCNCC3)cc2)cc1Nc1nccc(-c2cccnc2)n1` [demethylated imatinib], for which the “metabolite identification in CSF” value in data set [5] is listed as “identified”. Moreover, in data set [6], the “Active / Inactive (biological activity of metabolite)” value is “active”.

`CN(C)C(=O)c1cc2cnc(Nc3ccc(N4CCNCC4)cn3)nc2n1C1CCCC1` [ribociclib]: in data set [1], the CSF penetrance class result was “high (high (> 10 nM))” and the “CSF concentration, mean” value was found to be 44.1 nM. In data set [1] (pediatric patient, 3.33 mg/kg daily, as quoted in discussion), the “level detected in CSF of our patient” value came to 43 nM. Also, in data set [2], the fraction unbound was ~0.99 and the “calculated free, unbound CSF concentration, mean” value is given as 43.5 nM. Moreover, the ABCB1 substrate evaluation entry in the data set with ABCB1 is on record as “intermediate”.

Turning to `COC(=O)c1ccc2c(c1)NC(=O)/C2=C(\Nc1ccc(N(C)C(=O)CN2CCN(C)CC2)cc1)c1ccccc1` [nintedanib], the “detection in CSF samples” value in data set [1] is reported as “not detected; also recorded: not identified”. Further, in data set [7], the serum concentration was found to be 30 nM. Moreover, the ABCB1 substrate evaluation result in the data set on ABCB1 is on record as “intermediate”.

One may read the half-life as the time in which the quantity being followed falls by half. On to `Cc1[nH]c2ccccc2c1CCNCc1ccc(/C=C/C(=O)NO)cc1` [panobinostat], for which, in data set [1], the “detection in CSF samples” value is listed as “not detected; also recorded: untraceable”. In addition, in the data set on ABCB1, the ABCB1 substrate evaluation entry is “highly transported by ABCB1”. Further, in data set [4] (children, higher panobinostat doses), the “panobinostat levels in a published study” value is “below the detection limit”. Further, in data set [4], the half-life is 31 h.

In the case of `Cc1nc(Nc2ncc(C(=O)Nc3c(C)cccc3Cl)s2)cc(N2CCN(CCO)CC2)n1` [dasatinib], in data set [1], the CSF penetrance class entry is on record as “moderate (moderate (1–10 nM))” and the “CSF concentration, mean” value was found to be 1.2 nM. In data set [1] (CSF samples of pediatric patients), the “proportion of CSF samples in which the drug was detected” value was 66%. In data set [2], the fraction unbound is ~0.99 and the “calculated free, unbound CSF concentration, mean” value was 1 nM. Moreover, the ABCB1 substrate evaluation entry in the data set with ABCB1 is “highly transported by ABCB1”.

Turning to `O=C(CCCCCCC(=O)Nc1ccccc1)NO[C@@H]1O[C@H](C(=O)O)[C@@H](O)[C@H](O)[C@H]1O` [glucuronidated vorinostat], the “metabolite identification in CSF” value in data set [5] is “identified”. Besides, the “Active / Inactive (biological activity of metabolite)” value in data set [6] was “inactive”.

In the case of `O=C(O)CCC(=O)Nc1ccccc1` [succinanilic acid], in data set [5], the “metabolite identification in CSF” value was “identified; also recorded: high concentrations”. The “Active / Inactive (biological activity of metabolite)” value in data set [6] is “inactive”.

As to `CNC(=O)c1cc2cnc(Nc3ccc(N4CCNCC4)cn3)nc2n1C1CCCC1` [demethylated ribociclib], in data set [5], the “metabolite identification in CSF” value is given as “identified”. Further, in data set [6], the “Active / Inactive (biological activity of metabolite)” value is given as “active”.

Consider `O=C(CCCCCCC(=O)Nc1ccccc1)NO` [vorinostat], for which, in data set [1], the CSF penetrance class entry is given as “high (high (> 10 nM))” and the “CSF concentration, mean” value was 75.4 nM. In data set [2], the fraction unbound is ~0.99 and the “calculated free, unbound CSF concentration, mean” value is recorded as 75.3 nM. The ABCB1 substrate evaluation entry in the data set on ABCB1 is reported as “most favorable”.
